Reference: patent US6531456B1, “Gene therapy for the treatment of solid tumors using recombinant adeno-associated virus vectors” (Avigen, Inc., priority 1996, dated 2003)

Assays:
[1] = test system: U-251SP cells; test: In vitro bystander tumoricidal effect, coculture of transduced and non-transduced cells; type: cell-based, human; settings: 4.5 μg/mL ganciclovir, 3 days
Procedure: FIG. 3 depicts the in vitro cytocidal bystander effect observed in non-transduced cells that were cultured with HSV-tk transduced cells as described in Example 3. Cell co-cultures containing a total of 1×10^4 cells were formed by combining cells that were transduced with rAAVtk-IRES-hIL2 virions at the following ratios: 1:0, 1:1, 1:10, 1:100 and 0:1 (transduced:nontransduced cells). After a 24 hour incubation, the co-cultures were exposed to 4.5 μg/mL of ganciclovir and allowed to incubate for an additional 3 days. Numbers of living cells were counted using the trypan blue dye exclusion method. The Figure indicates % cell survival compared to the cultures containing only non-transduced cells (0:1). The data is presented a mean +/− a standard error deviation based on duplicate experiments.
In order to assess the in vitro bystander tumoricidal effect of HSV-tk transduced cells on neighboring non-transduced cells, the following study was carried out. U-251SP cells were incubated for 12 hours in DMEM medium containing rAAVtk-IRES-hIL2 virions at a MOI of 1.9×10^6. Since this MOI was greater than the MOI determined necessary for 100% transduction by the rAAVlacZ virions (e.g., 3×10^5 as determined above in Example 1), the incubated cells were considered to be 100% transduced. The rAAVtk-IRES-hIL2 transduced cells were cocultured with non-transduced U-251SP cells at ratios of 1:0, 1:1, 1:10, 1:100 and 0:1 (transduced:nontransduced cells) to provide 1×10^4 total cells per well in a 24 well tissue culture plate. 24 hours after the coculture was initiated, 4.5 μg/mL of ganciclovir (DENOSINE® Roche, Basel, Switzerland) was added to each well in fresh media. After 3 days, the numbers of living cells were determined using the trypan blue dye exclusion method.

[2] = test system: human U-251SP glioma cells; test: In vitro sensitivity of rAAVtk-IRES-hIL2-transduced cells to ganciclovir; type: cell-based
Procedure: More particularly, transduced cells were exposed to varying amounts of GCV to assess their sensitivity to the pro-drug. In the study 1×10^4 human U-251SP glioma cells were incubated for 12 hours with rAAVtk-IRES-hIL2 at MOIs of 0, 3×10^2, 3×10^3, 3×10^4, 3×10^5, and 3×10^6. The transduced cells were then incubated for an additional 72 hours in fresh medium containing serial dilutions of GCV at a final concentration of from 0.1-100 μg/mL.
In order to determine if cells transduced with the HSV-tk gene had enhanced susceptibility to the cytocidal effects of GCV, the following study was carried out. Recombinant AAV virion-transduced cells were exposed to varying amounts of GCV to assess their sensitivity to the drug. Particularly, 1×10^4 human U-251SP glioma cells/well (cultured in 200 μL of complete medium) were incubated with various concentrations of rAAVtk-IRES-hIL2 (at MOIs of 0, 3×10^2, 3×10^3, 3×10^4, 3×10^5, and 3×10^6) for 12 hours. The transduced cells were then incubated for an additional 72 hours in fresh medium containing serial dilutions of GCV at a final concentration of from 0.1-100 μg/mL. The numbers of living cells were then determined using the trypan blue dye exclusion method, and compared with those of nontransduced cells cultured without GCV treatment.

[3] = 3 patients; cited from earlier work

Nc1nc(O)c2ncn(COC(CO)CO)c2n1 [GCV, ganciclovir]
tumoricidal effect compared with only non-transduced cells (0:1) ([1]; 1% rAAVtk-IRES-hIL2-transduced cells (1:100)): 15.1% | tumoricidal effect compared with only non-transduced cells (0:1) ([1]; 10% rAAVtk-IRES-hIL2-transduced cells (1:10)): 58.1% | sensitivity to GCV killing ([1]; 50% rAAVtk-IRES-hIL2-transduced cells (1:1)): as sensitive to GCV killing as were cultures containing 100% transduced cells | inhibition ([2]; 4.5 μg/mL of GCV, rAAVtk-IRES-hIL2 at a MOI of 3×10^3): more than 80% | IC50 ([2]; Homo sapiens, Glioma cell, GCV 72 hours, cells exposed to rAAVtk-IRES-hIL2 at a MOI of 3×10^3 or greater, read-out: TCID50): < 0.28 µg/mL | effect on cell growth ([2]; high doses of GCV, non-transduced cells): mild inhibitory effect | concentration in the CSF [3]: 0.31 to 0.68 µg/mL | concentration in the plasma [3]: 0.44 to 2.20 µg/mL
